Results taken from BindingDB's records for patent US20240043427 (Gilead Sciences, 2024).

Target: 5'-nucleotidase (Homo sapiens, UniProt P21589)
Experiment: CD73 Biochemical IC50 Assay
Experimental: Compound serial dilutions were pre-spotted into Thermo Nunc assay plate. 50 uL CD73 enzyme buffer (CD73 purchased from R&D system=0.6 nM, 25 mM Tris, pH 7.4, 5 mM MgCl2, 1 mM NaH2PO4) was added into the assay plate and incubate for 15 mins. […] The samples were analyzed using Rapid fire.

Sequence of 5'-nucleotidase (P21589 whole entry): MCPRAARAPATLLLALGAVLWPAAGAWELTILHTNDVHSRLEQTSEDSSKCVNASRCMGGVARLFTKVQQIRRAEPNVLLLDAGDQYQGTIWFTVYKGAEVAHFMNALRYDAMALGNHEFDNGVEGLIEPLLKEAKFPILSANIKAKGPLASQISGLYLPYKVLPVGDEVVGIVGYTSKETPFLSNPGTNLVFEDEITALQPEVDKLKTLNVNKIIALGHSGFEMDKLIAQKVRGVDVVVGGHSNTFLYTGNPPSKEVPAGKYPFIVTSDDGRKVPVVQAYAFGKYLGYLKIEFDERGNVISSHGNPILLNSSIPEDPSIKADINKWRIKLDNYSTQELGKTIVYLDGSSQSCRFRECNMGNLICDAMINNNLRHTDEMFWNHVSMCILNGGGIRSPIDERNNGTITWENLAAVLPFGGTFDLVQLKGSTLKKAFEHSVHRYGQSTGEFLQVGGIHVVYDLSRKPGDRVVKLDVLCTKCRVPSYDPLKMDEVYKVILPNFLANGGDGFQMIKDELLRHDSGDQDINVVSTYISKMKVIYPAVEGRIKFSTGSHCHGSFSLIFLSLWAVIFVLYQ

SMILES | IC50 [nM]
O=c1[nH]cc(-c2cc(N3CC4CC(F)(C4)C3)c3nccn3n2)c(=O)[nH]1 [US20240043427, Example 579] | 19.1
O=c1[nH]cc(-c2cc([C@H]3C[C@@H]3c3ccc4cnn(CC(F)(F)F)c4c3F)c3ncc(F)n3n2)c(=O)[nH]1 [US20240043427, Example 630] | 0.32
CC(C)(C)COc1cc(-c2c[nH]c(=O)[nH]c2=O)nn2ccnc12 [US20240043427, Example 679] | 67.9
